Consider 1 molecule from ChEMBL document CHEMBL1154424, “Effect of delayed pulsed-wave ultrasound on local pharmacokinetics and pharmacodynamics of vancomycin-loaded acrylic bone cement in vivo” (Antimicrob Agents Chemother, 2007).

In brackets after ≈: the same amount, converted by molar mass.

For series [1], the system named is Oryctolagus cuniculus. The series can be described thus: Effect on local hemorrhage in Staphylococcus aureus ATCC 13565 infected New Zealand white rabbit hip assessed as total volume of drainage fluid at 3 g administered drug-loaded acrylic bone cement implanted in hips treated with 300 mW/cm2 normal ultrasound for 0 to 12 hrs after surgery. Format: ADME, organism-based. Particulars: in vivo, other.

The test system of series [2] is Oryctolagus cuniculus. The series can be described thus: Effect on local hemorrhage in Staphylococcus aureus ATCC 13565 infected New Zealand white rabbit hip assessed as total volume of drainage fluid at 3 g administered drug-loaded acrylic bone cement implanted in hips treated with 300 mW/cm2 normal ultrasound for 12 to 24 hrs after surgery. Particulars: in vivo, other. In kind it is ADME, organism-based.

For series [3], the system named is Staphylococcus aureus. The series is described as follows: Antimicrobial activity against Staphylococcus aureus ATCC 13565 infected in New Zealand white rabbit assessed as reduction of bacterial count in hip aspirates at 3 g administered drug-loaded in acrylic bone cement implanted in hips treated with 300 mW/cm2 normal ultrasound for 0 to 12 hrs after surgery. In kind it is functional.

In series [4] the test system is Staphylococcus aureus. The series is described as follows: Antimicrobial activity against Staphylococcus aureus ATCC 13565 infected in New Zealand white rabbit assessed as reduction of bacterial count in hip aspirates at 3 g administered drug-loaded in acrylic bone cement implanted in hips treated with 300 mW/cm2 normal ultrasound for 12 to 24 hrs after surgery. Format: functional.

Series [5] has as its system Staphylococcus aureus. The series can be described thus: Antimicrobial activity against Staphylococcus aureus ATCC 13565 infected in New Zealand white rabbit assessed as reduction of bacterial count per gram of femoral tissue at 3 g administered drug-loaded in acrylic bone cement implanted in hips treated with 300 mW/cm2 normal ultrasound for 0 to 12 hrs after surgery. Format: functional.

Series [6] relates to Staphylococcus aureus. The series is described as follows: Antimicrobial activity against Staphylococcus aureus ATCC 13565 infected in New Zealand white rabbit assessed as reduction of bacterial count per gram of femoral tissue at 3 g administered drug-loaded in acrylic bone cement implanted in hips treated with 300 mW/cm2 normal ultrasound for 12 to 24 hrs after surgery. Format: functional.

For series [7], the system named is Staphylococcus aureus. The series is described as follows: T>MIC in Staphylococcus aureus ATCC 13565 infected New Zealand white rabbit at 3 g administered drug-loaded acrylic bone cement implanted in hips after 48 hrs surgery without ultrasound. Particulars: in vivo, other. Format: ADME, organism-based.
The test system of series [8] is Staphylococcus aureus. The series is described as follows: T>MIC in Staphylococcus aureus ATCC 13565 infected New Zealand white rabbit at 3 g administered drug-loaded acrylic bone cement implanted in hips at 3 g exposed to 300 mW/cm2 delayed ultrasound for 0 to 12 hrs. Particulars: in vivo, other. Format: ADME, organism-based.
In series [9] the test system is Staphylococcus aureus. The series can be described thus: T>MIC in Staphylococcus aureus ATCC 13565 infected New Zealand white rabbit at 3 g administered drug-loaded acrylic bone cement implanted in hips exposed to 300 mW/cm2 delayed ultrasound for 12 to 24 hrs. Particulars: in vivo, other. Format: ADME, organism-based.
The subject of series [10] is Staphylococcus aureus. The series can be described thus: microbe, parasite or virus in culture. Particulars: ATCC 13565.
Description: Antibacterial activity against Staphylococcus aureus ATCC 13565 by tube dilution method

Regarding `CN[C@H](CC(C)C)C(=O)N[C@H]1C(=O)N[C@@H](CC(N)=O)C(=O)N[C@H]2C(=O)N[C@H]3C(=O)N[C@H](C(=O)N[C@H](C(=O)O)c4cc(O)cc(O)c4-c4cc3ccc4O)[C@H](O)c3ccc(c(Cl)c3)Oc3cc2cc(c3O[C@@H]2O[C@H](CO)[C@@H](O)[C@H](O)[C@H]2O[C@H]2C[C@](C)(N)[C@H](O)[C@H](C)O2)Oc2ccc(cc2Cl)[C@H]1O` [VANCOMYCIN], the Activity with Oryctolagus cuniculus [1] worked out at 4.65 mL; in the series with Oryctolagus cuniculus [2] it was 1.32 mL. In addition, the values for the log10CFU/ml in the series with Staphylococcus aureus [3] and with Staphylococcus aureus [4] were 1.62 and 2.77, respectively. In addition, the log10cfu in the series on Staphylococcus aureus [5] came out at 0.53; with Staphylococcus aureus [6], 1.29. Besides, the “T>MIC” value is 14.89 h in the series on Staphylococcus aureus [7], 13.59 h in the series on Staphylococcus aureus [8] and 35.4 h with Staphylococcus aureus [9]. In the series with Staphylococcus aureus [10], this molecule came in with an MBC of 3 µg/mL (≈ 2.07 µM).
